{
  "source": "paper PMC5831858",
  "about": "“Pharmacological characterisation of CR6086, a potent prostaglandin E2 receptor 4 antagonist, as a new potential disease-modifying anti-rheumatic drug” (Arthritis Research & Therapy, 2018)",
  "key": {"[1]": {"target": "β2 (Homo sapiens, UniProt P07550)", "sequence (P07550 whole entry)": "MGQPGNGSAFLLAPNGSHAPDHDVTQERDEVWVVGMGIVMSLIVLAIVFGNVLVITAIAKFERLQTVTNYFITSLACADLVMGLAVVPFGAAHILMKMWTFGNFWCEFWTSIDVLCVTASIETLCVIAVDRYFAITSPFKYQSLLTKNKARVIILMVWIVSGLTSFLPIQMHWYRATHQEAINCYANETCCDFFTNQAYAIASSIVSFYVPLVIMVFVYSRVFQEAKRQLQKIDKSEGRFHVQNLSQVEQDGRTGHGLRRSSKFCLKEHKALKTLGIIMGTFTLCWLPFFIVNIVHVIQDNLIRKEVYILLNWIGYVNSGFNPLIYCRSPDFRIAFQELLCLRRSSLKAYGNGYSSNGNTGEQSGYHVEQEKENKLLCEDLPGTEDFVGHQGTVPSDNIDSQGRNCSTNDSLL", "experiment": "Adrenergic receptor β2 binding", "conditions": "[^3H](-)CGP 12177, Human recombinant CHO cells, read-out: CR6086 Activity at 10µM"}, "[2]": {"target": "D2S (Homo sapiens, UniProt P14416)", "sequence (P14416 1-414 isoform P14416-2)": "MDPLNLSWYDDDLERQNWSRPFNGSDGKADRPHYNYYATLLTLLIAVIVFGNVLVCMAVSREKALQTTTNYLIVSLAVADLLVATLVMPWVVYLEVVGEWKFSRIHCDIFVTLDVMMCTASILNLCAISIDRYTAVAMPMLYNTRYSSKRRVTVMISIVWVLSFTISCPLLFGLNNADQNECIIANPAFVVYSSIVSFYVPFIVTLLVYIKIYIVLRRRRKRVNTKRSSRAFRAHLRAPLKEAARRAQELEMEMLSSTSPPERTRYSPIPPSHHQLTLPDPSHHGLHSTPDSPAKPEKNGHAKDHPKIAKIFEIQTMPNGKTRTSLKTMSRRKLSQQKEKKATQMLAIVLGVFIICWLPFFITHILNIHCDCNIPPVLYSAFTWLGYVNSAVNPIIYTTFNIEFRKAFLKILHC", "experiment": "Dopamine receptor D2S binding", "conditions": "[^3H]methyl-spiperone, Human recombinant HEK-293 cells, read-out: CR6086 Activity at 10µM"}, "[3]": {"test_system": "Cl^- channel (GABA-gated)", "experiment": "Ion channel Cl- (GABA-gated) binding", "conditions": "[^35S]TBPS, Rat cerebral cortex"}, "[4]": {"target": "H1 (Homo sapiens, UniProt P35367)", "sequence (P35367 whole entry)": "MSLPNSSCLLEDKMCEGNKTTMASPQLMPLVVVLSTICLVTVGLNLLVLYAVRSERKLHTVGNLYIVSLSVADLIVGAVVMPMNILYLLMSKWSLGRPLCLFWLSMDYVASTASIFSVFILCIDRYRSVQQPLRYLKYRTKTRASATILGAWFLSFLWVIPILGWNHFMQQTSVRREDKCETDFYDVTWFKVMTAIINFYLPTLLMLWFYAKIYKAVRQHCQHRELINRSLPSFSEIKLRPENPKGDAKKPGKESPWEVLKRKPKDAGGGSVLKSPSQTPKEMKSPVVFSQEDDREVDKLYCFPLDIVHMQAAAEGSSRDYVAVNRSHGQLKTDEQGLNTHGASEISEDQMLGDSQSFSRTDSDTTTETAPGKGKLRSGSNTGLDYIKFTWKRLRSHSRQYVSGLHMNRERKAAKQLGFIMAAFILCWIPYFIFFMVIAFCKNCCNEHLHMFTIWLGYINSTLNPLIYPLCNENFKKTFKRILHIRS", "experiment": "Histamine receptor H1 binding", "conditions": "[^3H]pyrilamine, Human recombinant HEK-293 cells, read-out: CR6086 Activity at 10µM"}, "[5]": {"test_system": "IL-23 release", "experiment": "IL-23 release from human dendritic cells", "assay_type": "cell-based", "conditions": "Dendritic cell, PGE2-stimulated, 24 h", "procedure": "PBMCs were purified using Histopaque (Sigma-Aldrich, St. Louis, MO, USA). CD14^+ cells were positively selected in a magnetic field (magnetic-activated cell sorting [MACS]; Miltenyi Biotec, Bergisch Gladbach, Germany). Purified CD14^+ cells were subsequently cultured for 7 days in differentiation medium (RPMI 1640 + 10% FBS, granulocyte-macrophage colony-stimulating factor 50 ng/ml and IL-4 100 ng/ml) and then stimulated with LPS (10 ng/ml), R848 2.5 μg/ml and PGE2 10 nM for 24 h in the presence of CR6086 (0.01–30 μM) or naproxen (1–30 μM). IL-23 release was measured by enzyme-linked immunosorbent assay (ELISA) (R&D Systems, Minneapolis, MN, USA)."}, "[6]": {"target": "DP1 (Homo sapiens, UniProt Q13258)", "sequence (Q13258 whole entry)": "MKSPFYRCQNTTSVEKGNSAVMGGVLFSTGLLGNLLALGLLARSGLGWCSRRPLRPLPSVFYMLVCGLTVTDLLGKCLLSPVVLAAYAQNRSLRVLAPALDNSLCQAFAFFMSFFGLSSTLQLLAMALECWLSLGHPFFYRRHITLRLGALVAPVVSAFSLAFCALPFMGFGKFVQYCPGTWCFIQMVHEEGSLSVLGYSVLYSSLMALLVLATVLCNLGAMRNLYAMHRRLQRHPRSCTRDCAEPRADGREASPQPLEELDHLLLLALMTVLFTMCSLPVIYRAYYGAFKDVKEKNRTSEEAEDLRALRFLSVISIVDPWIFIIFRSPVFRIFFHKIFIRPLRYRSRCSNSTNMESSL", "experiment": "Eicosanoid receptor DP1 functional assay", "assay_type": "cell-based", "conditions": "CHO cells"}, "[7]": {"target": "rat EP4 receptor (Rattus norvegicus, UniProt P43114)", "sequence (P43114 whole entry)": "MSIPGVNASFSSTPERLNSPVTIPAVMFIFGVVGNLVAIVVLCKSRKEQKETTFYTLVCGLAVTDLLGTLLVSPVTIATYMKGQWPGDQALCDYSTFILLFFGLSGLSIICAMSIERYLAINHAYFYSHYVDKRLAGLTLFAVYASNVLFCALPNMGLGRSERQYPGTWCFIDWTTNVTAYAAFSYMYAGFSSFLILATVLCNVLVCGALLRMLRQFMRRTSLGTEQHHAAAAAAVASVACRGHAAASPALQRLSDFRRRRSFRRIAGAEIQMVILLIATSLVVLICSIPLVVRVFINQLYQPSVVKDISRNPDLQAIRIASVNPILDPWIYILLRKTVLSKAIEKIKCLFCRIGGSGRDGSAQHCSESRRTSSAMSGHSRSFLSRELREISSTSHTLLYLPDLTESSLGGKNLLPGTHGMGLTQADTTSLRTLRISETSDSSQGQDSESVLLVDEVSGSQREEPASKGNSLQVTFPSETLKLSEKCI", "experiment": "EP4 receptor occupancy estimation from plasma exposure", "conditions": "3 mg/kg; repeated doses", "procedure": "(§1) CR6086 concentrations in rat plasma were determined by high-performance liquid chromatography (Agilent 1200 series; Agilent Technologies, Santa Clara, CA, USA) coupled with a triple-quadrupole mass spectrometer (API 4000 QTRAP; SCIEX, Concord, ON, Canada). A ZORBAX SB-C18 2.0 × 50-mm, 3.5-μm column (Agilent Technologies) in isocratic conditions was used with mobile phase 0.1% formic acid in water/acetonitrile (68:32 vol/vol). The method was linear within the dynamic range 1.0–10,000 ng/ml (lower to upper limit of quantification). CR6086 plasma protein binding was determined in the 0.2–200 μM concentration range using [^14C]CR6086 and equilibrium dialysis. EP4 receptor occupancy (RO) was calculated on the basis of CR6086 concentrations according to the following formula: RO%=Cave/Cave+Ki×100,\nAn estimation of the receptor occupancy was attempted in the dose range investigated in CIA rats. Because the CIA experiments were conducted after repeated doses, whereas the exposure shown above was determined after a single dose of CR6086, receptor occupancy estimation in the CIA rats took into consideration the accumulation ratio of CR6086 after repeated doses averaging 1.19 in male rats. […] Thus, in our experiments, clinically relevant effects in the CIA rat model were observed starting from approximately 50% EP4 receptor occupancy. […]"}, "[8]": {"test_system": "α2 (non-selective)", "experiment": "Adrenergic receptor α2 binding", "conditions": "[^3H]RX 821002, Rat cerebral cortex"}, "[9]": {"target": "A3 (Homo sapiens, UniProt P0DMS8)", "sequence (P0DMS8 whole entry)": "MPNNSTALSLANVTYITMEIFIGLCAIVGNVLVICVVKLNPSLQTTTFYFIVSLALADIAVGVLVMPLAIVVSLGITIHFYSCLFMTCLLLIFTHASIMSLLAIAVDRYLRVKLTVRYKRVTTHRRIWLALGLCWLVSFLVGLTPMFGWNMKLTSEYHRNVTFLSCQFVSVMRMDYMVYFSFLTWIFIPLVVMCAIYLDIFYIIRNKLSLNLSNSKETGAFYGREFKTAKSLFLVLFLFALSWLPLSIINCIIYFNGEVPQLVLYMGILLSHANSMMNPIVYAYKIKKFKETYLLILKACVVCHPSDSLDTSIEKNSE", "experiment": "Adenosine receptor A3 binding", "conditions": "[^125I]AB-MECA, Human recombinant HEK-293 cells, read-out: CR6086 Activity at 10µM"}, "[10]": {"target": "IP (PGI2) (Homo sapiens, UniProt P43119)", "sequence (P43119 whole entry)": "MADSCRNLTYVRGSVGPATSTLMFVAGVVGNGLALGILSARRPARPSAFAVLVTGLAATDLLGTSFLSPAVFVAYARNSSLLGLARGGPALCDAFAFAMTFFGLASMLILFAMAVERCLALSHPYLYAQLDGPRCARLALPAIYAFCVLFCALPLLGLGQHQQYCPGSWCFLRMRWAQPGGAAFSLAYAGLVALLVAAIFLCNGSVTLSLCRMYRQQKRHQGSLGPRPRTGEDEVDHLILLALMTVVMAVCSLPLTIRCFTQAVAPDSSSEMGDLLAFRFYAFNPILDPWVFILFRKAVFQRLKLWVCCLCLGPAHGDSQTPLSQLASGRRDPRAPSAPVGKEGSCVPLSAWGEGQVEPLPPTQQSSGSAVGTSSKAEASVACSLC", "experiment": "Eicosanoid receptor IP binding", "conditions": "[^3H]iloprost, HEK-293 cells, read-out: CR6086 Activity at 10µM"}, "[11]": {"experiment": "CR6086 pharmacokinetics in rats", "assay_type": "in vivo, rat", "conditions": "for Cmax / AUC / Tmax: rat, plasma, oral; for AUC: read-out: AUC24; for Tmax: median", "procedure": "as §1\nThe pharmacokinetics of CR6086 were investigated in the animal species used as rheumatoid arthritis models, employing the same administration route and dose range. […] Therefore, for ethical reasons, all pharmacokinetic experiments were conducted in naive animals."}, "[12]": {"target": "5-HT6 (Homo sapiens, UniProt P50406)", "sequence (P50406 whole entry)": "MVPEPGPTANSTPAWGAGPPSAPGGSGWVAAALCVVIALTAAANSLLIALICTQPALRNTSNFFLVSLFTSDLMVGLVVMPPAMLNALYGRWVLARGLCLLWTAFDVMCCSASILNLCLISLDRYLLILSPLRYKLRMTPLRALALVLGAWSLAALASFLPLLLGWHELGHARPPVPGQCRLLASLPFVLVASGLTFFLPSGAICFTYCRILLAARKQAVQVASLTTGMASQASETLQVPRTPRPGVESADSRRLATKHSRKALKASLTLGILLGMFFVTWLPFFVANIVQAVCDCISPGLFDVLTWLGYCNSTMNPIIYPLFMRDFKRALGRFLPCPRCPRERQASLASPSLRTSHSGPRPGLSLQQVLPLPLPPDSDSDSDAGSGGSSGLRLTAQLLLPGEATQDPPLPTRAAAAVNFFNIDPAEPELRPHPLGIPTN", "experiment": "Serotonin receptor 5-HT6 binding", "conditions": "[^3H]LSD, Human recombinant CHO cells, read-out: CR6086 Activity at 10µM"}},
  "note": "Where two headings read alike, the source gives them in different places.",
  "data": [
    {"compound": "O=C([O-])c1ccc(C2(NC(=O)[C@H]3CC4(CCN3Cc3ccc(C(F)(F)F)cc3)CC4)CC2)cc1.[Na+]", "note": "[CR6086, Sodium (R)-4-(1-(6-(4-(trifluoromethyl)benzyl)-6-azaspiro[2.5]octane-5-carboxamido)cyclopropyl)benzoate]", "values": [
      {"measurement": "inhibition at 10 µM", "setting": "[1]", "result": "< 20", "unit": "%"},
      {"measurement": "inhibition at 10 µM", "setting": "[2]", "result": "< 20", "unit": "%"},
      {"measurement": "CR6086 Activity at 10µM", "setting": "[3]", "result": "IN (IN = < 20% displacement or inhibition (all tables))"},
      {"measurement": "inhibition at 10 µM", "setting": "[4]", "result": "< 20", "unit": "%"},
      {"measurement": "IC50", "setting": "[5]", "result": 608, "unit": "nM"},
      {"measurement": "inhibition at 10 µM", "setting": "[6]; agonist effect, read-out: CR6086 Activity at 10µM", "result": "< 20", "unit": "%"},
      {"measurement": "CR6086 Activity at 10µM", "setting": "[6]; antagonist effect", "result": "IN (IN = < 20% displacement or inhibition (all tables))"},
      {"measurement": "estimated EP4 receptor occupancy", "setting": "[7]", "result": "approximately 50%"},
      {"measurement": "CR6086 Activity at 10µM", "setting": "[8]", "result": "IN (IN = < 20% displacement or inhibition (all tables))"},
      {"measurement": "inhibition at 10 µM", "setting": "[9]", "result": "< 20", "unit": "%"},
      {"measurement": "inhibition at 10 µM", "setting": "[10]", "result": "< 20", "unit": "%"},
      {"measurement": "unbound Cave", "setting": "[11]; 3 mg/kg, 24-h dosing interval, single dose", "result": 27.6, "unit": "ng/mL"},
      {"measurement": "unbound Cave adjusted for the accumulation ratio", "setting": "[11]; 3 mg/kg, repeated doses", "result": 32.8, "unit": "ng/mL"},
      {"measurement": "dose linearity of pharmacokinetics", "setting": "[11]; 1–30 mg/kg oral", "result": "linear pharmacokinetics"},
      {"measurement": "oral absorption", "setting": "[11]; 1–30 mg/kg oral", "result": "rapidly and completely absorbed"},
      {"measurement": "accumulation ratio after repeated doses", "setting": "[11]; male rats", "result": 1.19},
      {"measurement": "Cmax", "setting": "[11]; 1 mg/kg", "result": "1250 ± 67", "unit": "ng/mL"},
      {"measurement": "AUC", "setting": "[11]; 1 mg/kg, AUC4 for the dose of 1 mg/kg", "result": "2170 ± 338", "unit": "ng·h/mL"},
      {"measurement": "Tmax", "setting": "[11]; 1 mg/kg", "result": 15, "unit": "min"},
      {"measurement": "Cmax", "setting": "[11]; 3 mg/kg", "result": "3230 ± 173", "unit": "ng/mL"},
      {"measurement": "Tmax", "setting": "[11]; 3 mg/kg", "result": 15, "unit": "min"},
      {"measurement": "AUC", "setting": "[11]; 3 mg/kg", "result": "13700 ± 3990", "unit": "ng·h/mL"},
      {"measurement": "Cmax", "setting": "[11]; 10 mg/kg", "result": "14500 ± 3400", "unit": "ng/mL"},
      {"measurement": "Tmax", "setting": "[11]; 10 mg/kg", "result": 30, "unit": "min"},
      {"measurement": "AUC", "setting": "[11]; 10 mg/kg", "result": "58000 ± 6730", "unit": "ng·h/mL"},
      {"measurement": "Cmax", "setting": "[11]; 15 mg/kg", "result": "11900 ± 2040", "unit": "ng/mL"},
      {"measurement": "Tmax", "setting": "[11]; 15 mg/kg", "result": 30, "unit": "min"},
      {"measurement": "AUC", "setting": "[11]; 15 mg/kg", "result": "61600 ± 10600", "unit": "ng·h/mL"},
      {"measurement": "Cmax", "setting": "[11]; 30 mg/kg", "result": "34500 ± 6400", "unit": "ng/mL"},
      {"measurement": "Tmax", "setting": "[11]; 30 mg/kg", "result": 60, "unit": "min"},
      {"measurement": "AUC", "setting": "[11]; 30 mg/kg", "result": "206000 ± 46000", "unit": "ng·h/mL"},
      {"measurement": "inhibition at 10 µM", "setting": "[12]", "result": "< 20", "unit": "%"}
    ]}
  ]
}
